Reference: patent publication US7851475B2, “Substituted pyrrole-2, 5-diones as protein kinase C inhibitors” (Novartis AG, priority 2004, dated 2010)

Tests used:
[1] = target: T1, Human recombinant PKCα (Homo sapiens, UniProt P17252); assay: Protein Kinase Cα Assay; format: biochemical; conditions: 10 μM 33P-ATP, 60 min room temperature
T1 construct: purchased Oxford Biomedical Research

[2] = test system: Jurkat cells transfected with a human interleukin-2 promoter/reporter gene construct; assay: CD28 Costimulation Assay; format: cell-based; conditions: stimulated transfected Jurkat cells, 5.5 hours, stimulus not specified for these values, read-out: IC50 CD28 costimulation assay (luciferase reporter)
Description: The assay is performed with Jurkat cells transfected with a human interleukin-2 promoter/reporter gene construct as described by Baumann G et al. in Transplant. Proc. 1992; 24:43-8, the β-galactosidase reporter gene being replaced by the luciferase gene (de Wet J., et al., Mol. Cell. Biol. 1987, 7(2), 725-737). Cells are stimulated by solid phase-coupled antibodies or phorbol myristate acetate (PMA) and the Ca^++ ionophore ionomycin as follows. For antibody-mediated stimulation Microlite TM1 microtiter plates (Dynatech) are coated with 3 μg/ml goat anti-mouse IgG Fc antibodies (Jackson) in 55 μl phosphate-buffered saline (PBS) per well for three hours at RT. Plates are blocked after removing the antibodies by incubation with 2% bovine serum albumin (BSA) in PBS (300 μl per well) for 2 hours at RT. […] After incubation for 5.5 hours at 37° C. in 5% CO2, the level of luciferase is determined by bioluminescence measurement. […] Luciferase activity is assessed with a bioluminescence reader (Labsystem, Helsinki, Finland) after automatic addition of 50 μl per well luciferase reaction buffer containing 20 mM Tricine, 1.07 mM (MgCO3)4Mg(OH)2×5H2O, 2.67 mM MgSO4, 0.1 mM EDTA, 33.3 mM DTT, 270 μM coenzyme A, 470 μM luciferin (Chemie Brunschwig AG), 530 μM ATP, pH 7.8. […] The inhibition obtained in the presence of a test compound is calculated as percent inhibition of the high control. […]

[3] = test system: spleen cells from CBA and BALB/c mice; assay: Allogeneic Mixed Lymphocyte Reaction (MLR); format: cell-based; conditions: two-way MLR, CBA and BALB/c mouse spleen cells, four days incubation, read-out: IC50 MLR (3H-thymidine incorporation, proliferation)
Description: The two-way MLR is performed according to standard procedures (J. Immunol. Methods, 1973, 2, 279 and Meo T. et al., Immunological Methods, New York, Academic Press, 1979, 227-39). Briefly, spleen cells from CBA and BALB/c mice (1.6×10^5 cells from each strain per well in flat bottom tissue culture microtiter plates, 3.2×10^5 in total) are incubated in RPMI medium containing 10% FCS, 100 U/ml penicillin, 100 μg/ml streptomycin (Gibco BRL, Basel, Switzerland), 50 μM 2-mercaptoethanol (Fluka, Buchs, Switzerland) and serially diluted compounds. Seven three-fold dilution steps in duplicates per test compound are performed. After four days of incubation 1 μCi ^3H-thymidine is added. Cells are harvested after an additional five-hour incubation period, and incorporated ^3H-thymidine is determined according to standard procedures. Background values (low control) of the MLR are […].
[…] proliferation of BALB/c cells alone. Low controls are subtracted from all values. High controls without any sample are taken as 100% proliferation. […]

[4] = target: Human recombinant PKCθ (Homo sapiens, UniProt Q04759); assay: Protein Kinase C θ Assay
Sequence of Human recombinant PKCθ (Q04759 whole entry): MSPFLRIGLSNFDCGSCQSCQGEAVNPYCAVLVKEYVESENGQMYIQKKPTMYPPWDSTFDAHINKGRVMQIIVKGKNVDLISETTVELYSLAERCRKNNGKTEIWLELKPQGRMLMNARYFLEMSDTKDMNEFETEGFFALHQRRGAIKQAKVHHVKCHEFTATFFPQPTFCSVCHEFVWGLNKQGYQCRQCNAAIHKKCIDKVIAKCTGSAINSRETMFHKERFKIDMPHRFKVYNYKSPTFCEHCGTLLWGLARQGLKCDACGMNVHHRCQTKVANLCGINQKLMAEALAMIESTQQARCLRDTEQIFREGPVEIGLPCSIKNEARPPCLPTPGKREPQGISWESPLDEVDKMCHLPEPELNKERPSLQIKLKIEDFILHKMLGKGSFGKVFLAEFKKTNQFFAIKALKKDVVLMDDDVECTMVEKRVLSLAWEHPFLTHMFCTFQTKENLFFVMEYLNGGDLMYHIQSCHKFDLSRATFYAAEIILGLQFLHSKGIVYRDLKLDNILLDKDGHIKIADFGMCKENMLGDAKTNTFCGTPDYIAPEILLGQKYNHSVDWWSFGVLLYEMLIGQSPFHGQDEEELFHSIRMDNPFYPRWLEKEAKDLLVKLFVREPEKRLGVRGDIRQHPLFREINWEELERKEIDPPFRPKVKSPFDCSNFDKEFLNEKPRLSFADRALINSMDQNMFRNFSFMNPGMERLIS
Description: The compounds of the invention are tested for their activity on different PKC isoforms according to the following method. Assay is performed in a white with clear bottom 384-well microtiterplate with non-binding surface. The reaction mixture (25 μl) contains 1.5 μM of a tridecapeptide acceptor substrate that mimics the pseudo substrate sequence of PKC α with the Ala→Ser replacement, 10 μM ^33P-ATP, 10 mM Mg(NO3)2, 0.2 mM CaCl2, PKC at a protein concentration varying from 25 to 400 ng/ml (depending on the isotype used), lipid vesicles (containing 30 mol % phosphatidylserine, 5 mol % DAG and 65 mol % phosphatidylcholine) at a final lipid concentration of 0.5 mM, in 20 mM Tris-HCl buffer pH 7.4+0.1% BSA. Incubation is performed for 60 min at room temperature. Reaction is stopped by adding 50 μl of stop mix (100 mM EDTA, 200 μM ATP, 0.1% Triton X-100, 0.375 mg/well streptavidin-coated SPA beads in phosphate buffered saline w/o Ca, Mg). After 10 min incubation at room temperature, the suspension is spun down for 10 min at 300 g. Incorporated radioactivity is measured in a Trilux counter for 1 min. IC50 measurement is performed on a routine basis by incubating a serial dilution of inhibitor at concentrations ranging between 1-1000 μM. IC50 values are calculated from the graph by curve fitting with XL fit® software.

| IC50 [1] [nM] | IC50 [2] [nM] | IC50 [4] [nM] | SMILES | IC50 [3] [nM] |
| --- | --- | --- | --- | --- |
| 2.6 | 25.5 | 8.9 | CN1CCN(c2ccc([N+](=O)[O-])c(C3=C(c4c[nH]c5ccccc45)C(=O)NC3=O)c2)CC1 [Example 1, 3-(1H-indol-3-yl)-4-[5-(4-methyl-piperazin-1-yl)-2-nitro-phenyl]-pyrrole-2,5-dione] | 17.5 |
| 2.9 | 17 | 10.2 | Cc1cccc2c(C3=C(c4cc(N5CCN(C)CC5)ccc4[N+](=O)[O-])C(=O)NC3=O)c[nH]c12 [Example 4] | 24 |
